Measured values: article PMC2981508 (Science (New York, N.Y.), 2009)

What was measured:
[1] = test system: AR target genes PSA and TMPRSS2 in LNCaP/AR cells; test: qRT-PCR of AR-dependent genes in LNCaP/AR cells; format: cell-based, human; conditions: androgen-depleted media 5% CSS, 8 hours, 1 and 10 μM
[2] = test system: PSA and TMPRSS2 in parental LNCaP cells; test: Antagonism of R1881 induction of PSA and TMPRSS2 in parental LNCaP cells; format: cell-based, human
VCaP cells [3] = test: VCaP cell proliferation; format: cell-based, human; conditions: 1 and 10 μM, media containing FBS
VCaP cells [4] = test: VCaP apoptosis; format: cell-based, human; conditions: 10 μM, 1 or 3 days, PARP cleavage
[5] = test system: DU145 human prostate cancer cells; test: Growth of AR-negative DU145 cells in vitro; format: cell-based
[6] = test system: AR recruitment to PSA enhancer and TMPRSS2 enhancer in LNCaP/AR cells; test: Chromatin immunoprecipitation of AR in LNCaP/AR cells; format: cell-based, human
[7] = test system: AR recruitment to PSA enhancer and TMPRSS2 enhancer in parental LNCaP cells; test: Chromatin immunoprecipitation of AR in parental LNCaP cells; format: cell-based, human
serum PSA = test: Phase I/II clinical trial in men with CRPC; format: in vivo, human
LNCaP/AR tumors = test: LNCaP/AR xenograft model of CRPC in castrate male mice
VP16-AR fusion protein = format: cell-based; conditions: Cos-7 cells, 24 hours
AR = conditions: cited from earlier work
[8] = test system: DU145 prostate cancer xenografts; test: AR-negative DU145 prostate cancer xenografts; design: species or system mice; conditions: mouse, in vivo
[9] = Plasma levels in LNCaP/AR tumor-bearing mice; conditions: 10 mg/kg oral daily, 20 hours after the final dose on day 28

SMILES: CNC(=O)c1ccc(N2C(=S)N(c3ccc(C#N)c(C(F)(F)F)c3)C(=O)C2(C)C)cc1F [MDV3100]
- Expression of AR target genes PSA and TMPRSS2 (agonist activity) [1]: do not have agonist activity
- Antagonism of induction of PSA and TMPRSS2 by R1881 [2]: antagonized induction
- Growth of VCaP cells (VCaP cells [3]): suppressed growth
- Apoptosis in VCaP cells (VCaP cells [4]): induced apoptosis
- Growth suppression in AR-negative DU145 cells [5]: not observed
- AR recruitment to PSA enhancer and TMPRSS2 enhancer [6]: Neither RD162 nor MDV3100 recruited AR
- AR recruitment to PSA enhancer and TMPRSS2 enhancer [7]: Neither RD162 nor MDV3100 recruited AR
- Patients with sustained decline in serum PSA levels for at least 12 weeks (of 30) (serum PSA; 30 mg or 60 mg daily oral): Twenty-two
- Tolerability (serum PSA; 30 mg or 60 mg daily oral): well tolerated
- patients remaining on study longer than 25 weeks (of 30) (serum PSA; 30 mg or 60 mg daily oral): 11 patients
- Percent of patients with sustained declines (by >50 percent) in serum PSA (serum PSA; first 30 patients): 43%
- Tumor responses (LNCaP/AR tumors; MDV3100 treatment (fig. S5)): Tumor responses were also observed

SMILES: C[C@]1(O)CC[C@H]2[C@@H]3CCC4=CC(=O)CCC4=C3C=C[C@@]21C [R1881, reference compound]
- AR recruitment to PSA enhancer and TMPRSS2 enhancer [6]: promoted AR recruitment
- AR recruitment to PSA enhancer and TMPRSS2 enhancer [7]: only R1881 promoted recruitment
- Activation of VP16-AR (VP16-AR fusion protein): activated VP16-AR

SMILES: CC1(C)C(=O)N(c2ccc(C#N)c(C(F)(F)F)c2)C(=S)N1CCCCO [RU59063]
- affinity for AR, fold reduced compared to testosterone (AR): 3 fold

SMILES: CC(O)(CS(=O)(=O)c1ccc(F)cc1)C(=O)Nc1ccc(C#N)c(C(F)(F)F)c1 (stereo not drawn) [bicalutamide, reference compound]
- Expression of AR target genes PSA and TMPRSS2 (agonist activity) [1]: induced
- growth of AR-negative DU145 xenografts [8]: neither bicalutamide nor RD162 impaired the growth
- AR recruitment to PSA enhancer and TMPRSS2 enhancer [6]: promoted AR recruitment
- AR recruitment to PSA enhancer and TMPRSS2 enhancer [7]: only R1881 promoted recruitment
- Plasma levels (mean) [9]: 40 µM
- Plasma levels in all mice [9]: exceeded 25 μM
- Tumors progressed on treatment (of 12) (LNCaP/AR tumors; 10 mg/kg oral daily, 28 days): seven tumors
- Tumors regressed (12 tumors per group) (LNCaP/AR tumors; 10 mg/kg oral daily, 28 days): one tumor regressed by 50%
- Tumors with stable disease (of 12) (LNCaP/AR tumors; 10 mg/kg oral daily, 28 days): four tumors
- increase in tumor volume of progressing tumors (LNCaP/AR tumors; 10 mg/kg oral daily, 28 days): up to 5 fold
- Median time to tumor progression (LNCaP/AR tumors; continual 10 mg/kg oral daily treatment): 35 days
